# Experimental data: US20150316568A1, “Method for Screening Lyophilized Parenteral Formulations” (Cubist Pharmaceuticals, Inc., priority 2014, published 2015)
# Columns and labels:
# [1] = X-Ray Powder Diffraction (XRPD) of solid form pre/post lyophilization; format: physicochemical; conditions: crystalline powder before lyophilization
# [2] = Source text: 1. […] 2. […] 3. […] 4. […] 5. […] 6. […] 7. […] 8. […] 9. […] 10.
SMILES,solid form after the lyophilization process (XRPD) [1],solubility improvement [2]
O=C(O)c1cn(C2CC2)c2cc(N3CCNCC3)c(F)cc2c1=O [Ciprofloxacin],semi-crystalline forms,–
CN1CCN(c2cc3c(cc2F)c(=O)c(C(=O)O)cn3-c2ccc(F)cc2)CC1 [Difloxacin],amorphous form,3-4 ×
Fc1ccc([C@@H]2CCNC[C@H]2COc2ccc3c(c2)OCO3)cc1 [Paroxetine],amorphous form,3-4 ×
